“And” between values parts separate entries of the source, which are not always exact repeats. Equal entries are not always repeated. Toxic doses and inconclusive results are not listed.
System: CD2F1 mice, L1210 leukemia ip, survival T/C
Assay: NCI In Vivo Anticancer Drug Screen. Data for tumor model L1210 Leukemia (intraperitoneal) in CD2F1 (CDF1) mice
Settings: higher = longer survival
In short: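 Read-out first: treated-group measurement over vehicle-control measurement, expressed as a ratio. Animals bore a transplanted tumor line and were dosed with compound or vehicle.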

[1] = endpoint: mean survival time, dose: 100.0 mg/kg/injection, schedule: Q01DX001 (ip), vehicle: saline with Tween-80
[2] = endpoint: mean survival time, dose: 200.0 mg/kg/injection, schedule: Q01DX001 (ip), vehicle: saline with Tween-80
[3] = endpoint: mean survival time, dose: 400.0 mg/kg/injection, schedule: Q01DX001 (ip), vehicle: saline with Tween-80
[4] = endpoint: mean survival time, dose: 100.0 mg/kg/injection, schedule: Q04DX003 (ip), vehicle: saline with Tween-80
[5] = endpoint: mean survival time, dose: 200.0 mg/kg/injection, schedule: Q04DX003 (ip), vehicle: saline with Tween-80
[6] = endpoint: mean survival time, dose: 400.0 mg/kg/injection, schedule: Q04DX003 (ip), vehicle: saline with Tween-80
[7] = endpoint: mean survival time, dose: 100.0 mg/kg/injection, schedule: Q01DX009 (ip), vehicle: saline with Tween-80
[8] = endpoint: mean survival time, dose: 200.0 mg/kg/injection, schedule: Q01DX009 (ip), vehicle: saline with Tween-80
[9] = endpoint: mean survival time, dose: 50.0 mg/kg/injection, schedule: Q01DX009 (ip), vehicle: saline with Tween-80

Compound: Nc1ncnc2c1c1cnc(=O)[nH]c1n2C1OC(CO)C(O)C1O (stereo not given)
- T/C (endpoint: mean survival time, dose: 20.0 mg/kg/injection, schedule: Q01DX005 (ip), vehicle: alkali diluted with water): 97 % of control
- T/C (endpoint: mean survival time, dose: 40.0 mg/kg/injection, schedule: Q01DX005 (ip), vehicle: alkali diluted with water): 97 % of control
- T/C (endpoint: mean survival time, dose: 80.0 mg/kg/injection, schedule: Q01DX005 (ip), vehicle: alkali diluted with water): 96 % of control
- T/C (endpoint: mean survival time, dose: 160.0 mg/kg/injection, schedule: Q01DX005 (ip), vehicle: alkali diluted with water): 97 % of control
- T/C (endpoint: mean survival time, dose: 320.0 mg/kg/injection, schedule: Q01DX005 (ip), vehicle: alkali diluted with water): 110 % of control

Compound: CN(C)N=Nc1cccc(NC(N)=O)c1
- T/C (endpoint: mean survival time, dose: 19.75 mg/kg/injection, schedule: Q01DX009 (ip), vehicle: Klucel (hydroxypropylcellulose) (HPC)): 114 % of control
- T/C (endpoint: mean survival time, dose: 79.0 mg/kg/injection, schedule: Q01DX009 (ip), vehicle: Klucel (hydroxypropylcellulose) (HPC)): 87 % of control

Compound: Cc1cc(I)cs1
- T/C (endpoint: mean survival time, dose: 100.0 mg/kg/injection, schedule: Q01DX001 (ip), vehicle: saline): 108 % of control
- T/C (endpoint: mean survival time, dose: 200.0 mg/kg/injection, schedule: Q01DX001 (ip), vehicle: saline): 102 % of control

Compound: CCOC(OCC)c1cc(-c2cnc(N)nc2N)cc(Cl)c1Cl
- T/C [1]: 98 % of control
- T/C [2]: 97 % of control
- T/C [3]: 97 % of control

Compound: O=C(Nc1ccc(C2=NCCN2)cc1)c1ccc(NC(=O)c2ccc(C3=NCCN3)cc2)cc1
- T/C (endpoint: median survival time, dose: 30.0 mg/kg/injection, schedule: Q01DX009 (ip), vehicle: saline): 166 % of control
- T/C (endpoint: median survival time, dose: 60.0 mg/kg/injection, schedule: Q01DX009 (ip), vehicle: saline): 244 % of control

Compound: CCCCCCCCCCCCS(=O)(=O)O
- T/C [4]: 119 % of control
- T/C [5]: 119 % of control

Compound: CSc1nc(NC2OCC(O)C(O)C2O)c(Br)c(=O)[nH]1 (stereo not given)
- T/C (endpoint: median survival time, dose: 12.5 mg/kg/injection, schedule: Q01DX005 (ip), vehicle: saline with Tween-80): 101 % of control
- T/C (endpoint: median survival time, dose: 25.0 mg/kg/injection, schedule: Q01DX005 (ip), vehicle: saline with Tween-80): 101 % of control
- T/C (endpoint: median survival time, dose: 50.0 mg/kg/injection, schedule: Q01DX005 (ip), vehicle: saline with Tween-80): 101 % of control
- T/C (endpoint: median survival time, dose: 100.0 mg/kg/injection, schedule: Q01DX005 (ip), vehicle: saline with Tween-80): 101 % of control
- T/C (endpoint: median survival time, dose: 200.0 mg/kg/injection, schedule: Q01DX005 (ip), vehicle: saline with Tween-80): 101 % of control

Compound: [CH3][Sn]1([CH3])[O]C2C(CO)OC(n3cnc4c(=O)[nH]c(N)nc43)C2[O]1 (stereo not given)
- T/C (endpoint: mean survival time, dose: 12.5 mg/kg/injection, schedule: Q01DX005 (ip), vehicle: other): 98 % of control
- T/C (endpoint: mean survival time, dose: 25.0 mg/kg/injection, schedule: Q01DX005 (ip), vehicle: other): 101 % of control
- T/C (endpoint: mean survival time, dose: 50.0 mg/kg/injection, schedule: Q01DX005 (ip), vehicle: other): 102 % of control
- T/C (endpoint: mean survival time, dose: 100.0 mg/kg/injection, schedule: Q01DX005 (ip), vehicle: other): 93 % of control

Compound: Cc1cc2nc(NN)[nH]c2cc1C
- T/C [4]: 98 % of control
- T/C [5]: 98 % of control
- T/C [6]: 114 % of control

Compound: COP(=O)(CC1CO1)OC (stereo not given)
- T/C (endpoint: mean survival time, dose: 50.0 mg/kg/injection, schedule: Q01DX009 (ip), vehicle: saline): 103 % of control
- T/C (endpoint: mean survival time, dose: 100.0 mg/kg/injection, schedule: Q01DX009 (ip), vehicle: saline): 106 % of control
- T/C (endpoint: mean survival time, dose: 200.0 mg/kg/injection, schedule: Q01DX009 (ip), vehicle: saline): 98 % of control

Compound: CC(C)(C)ONC(=O)c1ccccc1Sc1ccccc1
- T/C [7]: 101 % of control
- T/C [8]: 98 % of control
- T/C (endpoint: mean survival time, dose: 400.0 mg/kg/injection, schedule: Q01DX009 (ip), vehicle: saline with Tween-80): 97 % of control

Compound: CCO[C@@H]1c2cc3c(cc2[C@@H](c2cc(OC)c(O)c(OC)c2)[C@H]2C(=O)OC[C@@H]21)OCO3
- T/C (endpoint: median survival time, dose: 0.65 mg/kg/injection, schedule: Q01DX009 (ip), vehicle: saline with Tween-80): 108 % of control
- T/C (endpoint: median survival time, dose: 1.25 mg/kg/injection, schedule: Q01DX009 (ip), vehicle: saline with Tween-80): 109 % of control
- T/C (endpoint: median survival time, dose: 2.5 mg/kg/injection, schedule: Q01DX009 (ip), vehicle: saline with Tween-80): 106 % of control
- T/C (endpoint: median survival time, dose: 5.0 mg/kg/injection, schedule: Q01DX009 (ip), vehicle: saline with Tween-80): 101 % of control
- T/C (endpoint: median survival time, dose: 10.0 mg/kg/injection, schedule: Q01DX009 (ip), vehicle: saline with Tween-80): 100 % of control and 109 % of control
- T/C (endpoint: median survival time, dose: 20.0 mg/kg/injection, schedule: Q01DX009 (ip), vehicle: saline with Tween-80): 94 % of control
- T/C (endpoint: median survival time, dose: 40.0 mg/kg/injection, schedule: Q01DX009 (ip), vehicle: saline with Tween-80): 97 % of control

Compound: CCc1cc(C(C)(C)C)c(O)c(C(C)(C)C)c1
- T/C (endpoint: mean survival time, dose: 25.0 mg/kg/injection, schedule: Q01DX009 (ip), vehicle: Klucel (hydroxypropylcellulose) (HPC)): 102 % of control
- T/C (endpoint: mean survival time, dose: 50.0 mg/kg/injection, schedule: Q01DX009 (ip), vehicle: Klucel (hydroxypropylcellulose) (HPC)): 102 % of control
- T/C (endpoint: mean survival time, dose: 100.0 mg/kg/injection, schedule: Q01DX009 (ip), vehicle: Klucel (hydroxypropylcellulose) (HPC)): 98 % of control

Compound: C/C(=N\Nc1nc2ccccc2s1)c1ccc2c(c1)Sc1ccccc1O2
- T/C (endpoint: mean survival time, dose: 37.5 mg/kg/injection, schedule: Q01DX009 (ip), vehicle: saline): 92 % of control
- T/C (endpoint: mean survival time, dose: 75.0 mg/kg/injection, schedule: Q01DX009 (ip), vehicle: saline): 95 % of control
- T/C (endpoint: mean survival time, dose: 150.0 mg/kg/injection, schedule: Q01DX009 (ip), vehicle: saline): 98 % of control

Compound: CC(C(=O)O)C1(O)CCCCC1 (stereo not given)
- T/C (endpoint: mean survival time, dose: 5.0 mg/kg/injection, schedule: Q01DX009 (ip), vehicle: saline with Tween-80): 101 % of control
- T/C (endpoint: mean survival time, dose: 10.0 mg/kg/injection, schedule: Q01DX009 (ip), vehicle: saline with Tween-80): 95 % of control
- T/C (endpoint: mean survival time, dose: 20.0 mg/kg/injection, schedule: Q01DX009 (ip), vehicle: saline with Tween-80): 90 % of control

Compound: CSCCSC
- T/C [1]: 104 % of control
- T/C [2]: 98 % of control
- T/C [3]: 96 % of control

Compound: CC(c1ccccc1)S(=O)[O-].[C-]#[O+].[C-]#[O+].[Fe+6].[c-]1[c-][c-][cH-][c-]1 (stereo not given)
- T/C (endpoint: mean survival time, dose: 25.0 mg/kg/injection, schedule: Q04DX003 (ip), vehicle: saline with Tween-80): 94 % of control
- T/C (endpoint: mean survival time, dose: 50.0 mg/kg/injection, schedule: Q04DX003 (ip), vehicle: saline with Tween-80): 100 % of control
- T/C [4]: 97 % of control

Compound: CC1(C)C2CC=C(C[P+](c3ccccc3)(c3ccccc3)c3ccccc3)C1C2 (stereo not given)
- T/C (endpoint: mean survival time, dose: 5.0 mg/kg/injection, schedule: Q01DX009 (ip), vehicle: saline sonified): 109 % of control
- T/C (endpoint: mean survival time, dose: 5.0 mg/kg/injection, schedule: Q04DX003 (ip), vehicle: saline): 103 % of control
- T/C (endpoint: mean survival time, dose: 10.0 mg/kg/injection, schedule: Q04DX003 (ip), vehicle: saline): 92 % of control
- T/C (endpoint: mean survival time, dose: 20.0 mg/kg/injection, schedule: Q04DX003 (ip), vehicle: saline): 87 % of control

Compound: CC(CCc1ccc(S(=O)(=O)Cl)cc1)c1ccc(S(=O)(=O)Cl)cc1 (stereo not given)
- T/C [9]: 106 % of control
- T/C [7]: 95 % of control
- T/C [8]: 91 % of control

Compound: CC12CC=CCC1CCC/C2=N/O (stereo not given)
- T/C [1]: 113 % of control
- T/C (endpoint: mean survival time, dose: 100.0 mg/kg/injection, schedule: Q04DX003 (ip), vehicle: acetone): 96 % of control
- T/C [2]: 97 % of control
- T/C (endpoint: mean survival time, dose: 200.0 mg/kg/injection, schedule: Q04DX003 (ip), vehicle: acetone): 98 % of control
- T/C [3]: 103 % of control
- T/C (endpoint: mean survival time, dose: 400.0 mg/kg/injection, schedule: Q04DX003 (ip), vehicle: acetone): 96 % of control

Compound: COc1cc(/C=N/NC(=O)c2cccs2)cc(OC)c1OC
- T/C [4]: 98 % of control
- T/C [5]: 93 % of control
- T/C [6]: 88 % of control

Compound: O=S(=O)(O)c1ccccc1N=Nc1c(S(=O)(=O)O)cc2cc(S(=O)(=O)O)c(N=Nc3ccccc3S(=O)(=O)O)c(O)c2c1O
- T/C [4]: 97 % of control
- T/C [5]: 100 % of control

Compound: O=C(O[Si](Cc1ccccc1)(Cc1ccccc1)Cc1ccccc1)N(CCCl)CCCl
- T/C (endpoint: mean survival time, dose: 6.25 mg/kg/injection, schedule: Q01DX009 (ip), vehicle: distilled water + Tween-80): 109 % of control
- T/C (endpoint: mean survival time, dose: 6.25 mg/kg/injection, schedule: Q01DX009 (ip), vehicle: saline with Tween-80): 96 % of control
- T/C (endpoint: mean survival time, dose: 12.5 mg/kg/injection, schedule: Q01DX009 (ip), vehicle: saline with Tween-80): 103 % of control
- T/C (endpoint: mean survival time, dose: 25.0 mg/kg/injection, schedule: Q01DX009 (ip), vehicle: distilled water + Tween-80): 117 % of control
- T/C (endpoint: mean survival time, dose: 25.0 mg/kg/injection, schedule: Q01DX009 (ip), vehicle: saline with Tween-80): 111 % of control
- T/C [9]: 121 % of control
- T/C [7]: 123 % of control
- T/C (endpoint: mean survival time, dose: 200.0 mg/kg/injection, schedule: Q01DX009 (ip), vehicle: distilled water + Tween-80): 91 % of control
- T/C [8]: 152 % of control

Compound: O=S(=O)(CCCl)c1ccc(Cl)cc1
- T/C (endpoint: mean survival time, dose: 100.0 mg/kg/injection, schedule: Q04DX002 (ip), vehicle: saline with Tween-80): 96 % of control
- T/C (endpoint: mean survival time, dose: 200.0 mg/kg/injection, schedule: Q04DX002 (ip), vehicle: saline with Tween-80): 101 % of control

Source: PubChem BioAssay AID256 (DTP/NCI, 2004)
